Data taken from patent US10323022B2, “Pyrrolidinyl urea, pyrrolidinyl thiourea and pyrrolidinyl guanidine compounds as TrkA kinase inhibitors” (Array BioPharma Inc., priority 2011, dated 2019).

Biological target: TrkA (Homo sapiens (Human), UniProt P04629)
Test: TrkA Omnia Assay
Assay type: biochemical
Conditions: averaged IC50; 20 nM enzyme, 500 μM ATP, 10 μM peptide substrate
Method in brief: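 Continuous fluorescent kinase read-out (ex 360 nm, em 485 nm) over 70 min, with initial rates fitted to 4- or 5-parameter logistic curves for IC50. Final conditions: 500 μM ATP, 10 μM Omnia Tyr Peptide #4, 20 nM TrkA, MOPS pH 7.5 buffer with MgCl2 and Triton X-100; enzyme and compound preincubated 10 min at ambient temperature.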

Sequence of TrkA (P04629 33-796): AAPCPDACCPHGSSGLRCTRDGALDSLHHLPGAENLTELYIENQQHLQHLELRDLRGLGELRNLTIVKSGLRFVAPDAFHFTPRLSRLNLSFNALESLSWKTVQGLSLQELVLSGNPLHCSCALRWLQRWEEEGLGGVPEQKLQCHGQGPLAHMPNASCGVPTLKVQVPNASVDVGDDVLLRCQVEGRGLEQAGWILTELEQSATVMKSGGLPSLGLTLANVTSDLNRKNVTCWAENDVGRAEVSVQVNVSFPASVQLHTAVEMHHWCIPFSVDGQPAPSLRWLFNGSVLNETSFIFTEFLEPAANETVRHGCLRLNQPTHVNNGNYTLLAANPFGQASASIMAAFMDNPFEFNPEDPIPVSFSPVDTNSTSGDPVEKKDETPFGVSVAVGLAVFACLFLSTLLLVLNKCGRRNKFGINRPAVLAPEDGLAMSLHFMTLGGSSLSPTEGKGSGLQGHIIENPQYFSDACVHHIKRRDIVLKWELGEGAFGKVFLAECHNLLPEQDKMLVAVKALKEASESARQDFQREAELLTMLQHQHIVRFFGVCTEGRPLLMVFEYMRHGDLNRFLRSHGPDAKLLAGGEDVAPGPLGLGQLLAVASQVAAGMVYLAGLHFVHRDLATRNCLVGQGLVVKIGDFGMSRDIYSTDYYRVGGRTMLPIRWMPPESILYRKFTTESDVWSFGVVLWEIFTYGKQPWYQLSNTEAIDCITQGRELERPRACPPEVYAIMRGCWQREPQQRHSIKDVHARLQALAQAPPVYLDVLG

| IC50 | Structure (SMILES) |
| --- | --- |
| < 0.1 µM | COCCN1C[C@@H](NC(=O)Nc2c(C)c(Br)nn2-c2ccccc2)[C@H](c2ccc(F)c(F)c2)C1 [Example 352, 1-(3-bromo-4-methyl-1-phenyl-1H-pyrazol-5-yl)-3-((3S,4R)-4-(3,4-difluorophenyl)-1-(2-methoxyethyl)pyrrolidin-3-yl)urea] |
| 0.1 to 1 µM | COCCN1C[C@@H](NC(=O)Nc2c3c(nn2-c2ccccc2)C(=O)N(C)C3)[C@H](c2ccc(F)c(F)c2)C1 [Example 353, 1-((3S,4R)-4-(3,4-difluorophenyl)-1-(2-methoxyethyl)pyrrolidin-3-yl)-3-(5-methyl-6-oxo-2-phenyl-2,4,5,6-tetrahydropyrrolo[3,4-c]pyrazol-3-yl)urea] |
| < 0.1 µM | COCCN1C[C@@H](NC(=O)Nc2c(C)c(OCc3nnc(C)o3)nn2-c2ccccc2)[C@H](c2ccc(F)c(F)c2)C1 [Example 355, 1-((3S,4R)-4-(3,4-difluorophenyl)-1-(2-methoxyethyl)pyrrolidin-3-yl)-3-(4-methyl-3-((5-methyl-1,3,4-oxadiazol-2-yl)methoxy)-1-phenyl-1H-pyrazol-5-yl)urea] |
| < 0.1 µM | CCOc1nn(-c2ccccc2)c(NC(=O)N[C@@H]2CN(CCOC)C[C@H]2c2ccc(F)c(F)c2)c1Cl [Example 356, 1-(4-chloro-3-ethoxy-1-phenyl-1H-pyrazol-5-yl)-3-((3S,4R)-4-(3,4-difluorophenyl)-1-(2-methoxyethyl)pyrrolidin-3-yl)urea] |
| < 0.1 µM | CCOc1nn(-c2ccccc2)c(NC(=O)N[C@@H]2CN(CCOC)C[C@H]2c2ccc(F)c(F)c2)c1F [Example 357, 1-((3S,4R)-4-(3,4-difluorophenyl)-1-(2-methoxyethyl)pyrrolidin-3-yl)-3-(3-ethoxy-4-fluoro-1-phenyl-1H-pyrazol-5-yl)urea] |
| < 0.1 µM | COCCN1C[C@@H](NC(=O)Nc2c(Br)c(OCC(C)(C)O)nn2-c2ccccc2)[C@H](c2ccc(F)c(F)c2)C1 [Example 358, 1-(4-bromo-3-(2-hydroxy-2-methylpropoxy)-1-phenyl-1H-pyrazol-5-yl)-3-((3S,4R)-4-(3,4-difluorophenyl)-1-(2-methoxyethyl)pyrrolidin-3-yl)urea] |
| < 0.1 µM | COCCN1C[C@@H](NC(=O)Nc2c(Cl)c(OCC(C)(C)O)nn2-c2ccccc2)[C@H](c2ccc(F)c(F)c2)C1 [Example 359, 1-(4-chloro-3-(2-hydroxy-2-methylpropoxy)-1-phenyl-1H-pyrazol-5-yl)-3-((3S,4R)-4-(3,4-difluorophenyl)-1-(2-methoxyethyl)pyrrolidin-3-yl)urea] |
| < 0.1 µM | CCOC(=O)COc1nn(-c2ccccc2)c(NC(=O)N[C@@H]2CN(CCOC)C[C@H]2c2ccc(F)c(F)c2)c1C [Example 361, ethyl 2-((5-(3-((3S,4R)-4-(3,4-difluorophenyl)-1-(2-methoxyethyl)pyrrolidin-3-yl)ureido)-4-methyl-1-phenyl-1H-pyrazol-3-yl)oxy)acetate] |
| < 0.1 µM | COCCN1C[C@@H](NC(=O)Nc2c(C)c(OCC(C)(C)O)nn2-c2ccccc2)[C@H](c2ccc(F)cc2)C1 [Example 362, 1-((3S,4R)-4-(4-fluorophenyl)-1-(2-methoxyethyl)pyrrolidin-3-yl)-3-(3-(2-hydroxy-2-methylpropoxy)-4-methyl-1-phenyl-1H-pyrazol-5-yl)urea] |
| < 0.1 µM | COCCN1C[C@@H](NC(=O)Nc2c(C)c(OC[C@@H](C)O)nn2-c2ccccc2)[C@H](c2ccc(F)cc2)C1 [Example 364, 1-((3S,4R)-4-(4-fluorophenyl)-1-(2-methoxyethyl)pyrrolidin-3-yl)-3-(3-((R)-2-hydroxypropoxy)-4-methyl-1-phenyl-1H-pyrazol-5-yl)urea] |

Second part, the compound before the results:

| Structure (SMILES) | IC50 |
| --- | --- |
| COCCN1C[C@@H](NC(=O)Nc2c(C)c(-c3cnn(C)c3)nn2-c2ccccc2)[C@H](c2ccc(C)cc2)C1 [Example 327, 1-(1′,4-dimethyl-1-phenyl-1H,1′H-[3,4′-bipyrazol]-5-yl)-3-((3S,4R)-1-(2-methoxyethyl)-4-(p-tolyl)pyrrolidin-3-yl)urea] | < 0.1 µM |
| COCCN1C[C@@H](NC(=O)Nc2c(C)c(-c3ccccc3)nn2-c2ccccc2)[C@H](c2ccc(F)c(F)c2)C1 [Example 328, 1-((3S,4R)-4-(3,4-difluorophenyl)-1-(2-methoxyethyl)pyrrolidin-3-yl)-3-(4-methyl-1,3-diphenyl-1H-pyrazol-5-yl)urea] | < 0.1 µM |
| COCCN1C[C@@H](NC(=O)Nc2c(C)c(-c3ccccc3)nn2-c2ccccc2)[C@H](c2cc(F)cc(F)c2)C1 [Example 329, 1-((3S,4R)-4-(3,5-difluorophenyl)-1-(2-methoxyethyl)pyrrolidin-3-yl)-3-(4-methyl-1,3-diphenyl-1H-pyrazol-5-yl)urea] | < 0.1 µM |
| COCCN1C[C@@H](NC(=O)Nc2c(C)c(-c3ccccc3)nn2-c2ccccc2)[C@H](c2cc(F)c(F)c(F)c2)C1 [Example 330, 1-((3S,4R)-4-(3,4,5-trifluorophenyl)-1-(2-methoxyethyl)pyrrolidin-3-yl)-3-(4-methyl-1,3-diphenyl-1H-pyrazol-5-yl)urea] | < 0.1 µM |
| COCCN1C[C@@H](NC(=O)Nc2c(C)c(-c3ccccc3)nn2-c2ccccc2)[C@H](c2ccc(F)cc2)C1 [Example 331, 1-((3S,4R)-4-(4-fluorophenyl)-1-(2-methoxyethyl)pyrrolidin-3-yl)-3-(4-methyl-1,3-diphenyl-1H-pyrazol-5-yl)urea] | < 0.1 µM |
| COCCN1CC(c2cnn(C)c2)[C@H](NC(=O)Nc2c(Br)c(C)nn2-c2ccccc2)C1 (stereo partly shown) [Example 332] | 0.1 to 1 µM |
| COCCN1C[C@@H](NC(=O)Nc2c(C)c(C)nn2-c2ccccc2)[C@H](c2cccc(C(F)(F)F)c2)C1 [Example 336, 1-(3,4-dimethyl-1-phenyl-1H-pyrazol-5-yl)-3-((3S,4R)-1-(2-methoxyethyl)-4-(3-(trifluoromethyl)phenyl)pyrrolidin-3-yl)urea] | < 0.1 µM |
| COCCN1C[C@@H](NC(=O)Nc2c3c(nn2-c2ccccc2)CCC3)[C@H](c2cncc(F)c2)C1 [Example 337, 1-((3S,4R)-4-(5-fluoropyridin-3-yl)-1-(2-methoxyethyl)pyrrolidin-3-yl)-3-(2-phenyl-2,4,5,6-tetrahydrocyclopenta[c]pyrazol-3-yl)urea] | < 0.1 µM |
| COCCN1C[C@H](NC(=O)Nc2c3c(nn2-c2ccccc2)CCC3)[C@@H](c2cncc(F)c2)C1 [Example 338, 1-((3R,4S)-4-(5-fluoropyridin-3-yl)-1-(2-methoxyethyl)pyrrolidin-3-yl)-3-(2-phenyl-2,4,5,6-tetrahydrocyclopenta[c]pyrazol-3-yl)urea] | < 0.1 µM |
| COCCN1C[C@@H](NC(=O)Nc2c(C)c(OCCF)nn2-c2ccccc2)[C@H](c2cncc(F)c2)C1 [Example 339, 1-(3-(2-fluoroethoxy)-4-methyl-1-phenyl-1H-pyrazol-5-yl)-3-((3S,4R)-4-(5-fluoropyridin-3-yl)-1-(2-methoxyethyl)pyrrolidin-3-yl)urea] | < 0.1 µM |
| COCCN1C[C@H](NC(=O)Nc2c(C)c(OCCF)nn2-c2ccccc2)[C@@H](c2cncc(F)c2)C1 [Example 340, 1-(3-(2-fluoroethoxy)-4-methyl-1-phenyl-1H-pyrazol-5-yl)-3-((3R,4S)-4-(5-fluoropyridin-3-yl)-1-(2-methoxyethyl)pyrrolidin-3-yl)urea] | 0.1 to 1 µM |
| COCCN1C[C@@H](NC(=O)Nc2c(C)c(-c3cnn(C)c3)nn2-c2ccccc2)[C@H](c2ccncc2F)C1 [Example 346, 1-(1′,4-dimethyl-1-phenyl-1H,1′H-[3,4′-bipyrazol]-5-yl)-3-((3S,4R)-4-(3-fluoropyridin-4-yl)-1-(2-methoxyethyl)pyrrolidin-3-yl)urea] | < 0.1 µM |
| COCCN1C[C@@H](NC(=O)Nc2c(C)c(-c3ncn(C)n3)nn2-c2ccccc2)[C@H](c2ccc(F)c(F)c2)C1 [Example 347, 1-((3S,4R)-4-(3,4-difluorophenyl)-1-(2-methoxyethyl)pyrrolidin-3-yl)-3-(4-methyl-3-(1-methyl-1H-1,2,4-triazol-3-yl)-1-phenyl-1H-pyrazol-5-yl)urea] | < 0.1 µM |
| COCCN1C[C@@H](NC(=O)Nc2c(C)c(-c3cnn(CCOC)c3)nn2-c2ccccc2)[C@H](c2ccc(F)c(F)c2)C1 [Example 348, 1-((3S,4R)-4-(3,4-difluorophenyl)-1-(2-methoxyethyl)pyrrolidin-3-yl)-3-(1′-(2-methoxyethyl)-4-methyl-1-phenyl-1H,1′H-[3,4′-bipyrazol]-5-yl)urea] | < 0.1 µM |
| COCCN1C[C@@H](NC(=O)Nc2c(C)c(C#N)nn2-c2ccccc2)[C@H](c2ccc(F)c(F)c2)C1 [Example 349, 1-(3-cyano-4-methyl-1-phenyl-1H-pyrazol-5-yl)-3-((3S,4R)-4-(3,4-difluorophenyl)-1-(2-methoxyethyl)pyrrolidin-3-yl)urea] | < 0.1 µM |
| COCCN1C[C@@H](NC(=O)Nc2c(C)c(-c3cnn(CCO)c3)nn2-c2ccccc2)[C@H](c2ccc(F)c(F)c2)C1 [Example 350, 1-((3S,4R)-4-(3,4-difluorophenyl)-1-(2-methoxyethyl)pyrrolidin-3-yl)-3-(1′-(2-hydroxyethyl)-4-methyl-1-phenyl-1H,1′H-[3,4′-bipyrazol]-5-yl)urea] | < 0.1 µM |
| COCCN1C[C@@H](NC(=O)Nc2c(C)c(-c3cnn(C)n3)nn2-c2ccccc2)[C@H](c2ccc(F)c(F)c2)C1 [Example 351, 1-((3S,4R)-4-(3,4-difluorophenyl)-1-(2-methoxyethyl)pyrrolidin-3-yl)-3-(4-methyl-3-(2-methyl-2H-1,2,3-triazol-4-yl)-1-phenyl-1H-pyrazol-5-yl)urea] | < 0.1 µM |
| CC[C@H](O)COc1nn(-c2ccccc2)c(NC(=O)N[C@@H]2CN(CCOC)C[C@H]2c2ccc(F)c(F)c2)c1C [Example 360, 1-((3S,4R)-4-(3,4-difluorophenyl)-1-(2-methoxyethyl)pyrrolidin-3-yl)-3-(3-((S)-2-hydroxybutoxy)-4-methyl-1-phenyl-1H-pyrazol-5-yl)urea] | < 0.1 µM |
